The values below come from patent US20030134901A1, “Lipoxin compounds and their use in treating cell proliferative disorders” (priority 1993, published 2003).

For series [1], the system named is human skin fibroblasts. Put plainly: Fibroblast proliferation, MTT assay. The note with it: Homo sapiens, Skin fibroblast; 100 nM, n=3. It counts as cell-based. The text has this:
Human type II epithelial A549 cells from human lung carcinoma and normal human skin fibroblast (breast) were obtained from the American Type Culture Collection (Rockville, Md.). The A549 cell line originated from a human alveolar cell carcinoma and was a useful cell line because it was easily assessable and could be maintained in culture without contaminating tissue macrophages. (Lieber, M., et al (1976) A continuous tumor-cell line from a human lung carcinoma with properties of type II alveolar epithelial cells. Int. J Cancer Fibroblasts were utilized within their limited window of viability and their passage numbers were recorded (results are reported for cells from 3-5 passages). Epithelial A549 cells were seeded into T-75 cm^2 tissue culture flasks and maintained in F-12K medium supplemented with 10% heat-inactivated FBS, penicillin (50 U/mL) and streptomycin (50 (g/mL). Human PMN from healthy donors who had not taken ASA or other medications for at least two weeks were obtained by Ficoll-Hypaque gradient centrifugation and dextran sedimentation, (Böyum A. (1968) Isolation of mononuclear cells and granulocytes from human blood. […] Viability of A549 cells and PMN was determined by their ability to exclude trypan blue and were 95±2 and 97±1%, respectively.
A microculture 3,(4,5-dimethylthiazoyl-2-yl) 2,5 (diphenyl-tetrazolium bromide) (MTT) assay, (Marshall, N. J., et al. (1995) A critical assessment of the use of microculture tetrazolium assays to measure cell growth and function. Growth Regul. 5: 69-84.), was used to examine the actions of LXs and other eicosanoids on cell proliferation. A549 cells and fibroblasts from exponential-phase maintenance cultures were counted and dispensed within replicate 96-well culture plates in 100 μl volumes of medium (˜2000 cells/well). […] Dye solution was aspirated, wells were washed once with HBSS and dye taken up by the cells was extracted in 100 μl of isopropyl alcohol:1 N HCl (96:4, v/v) and quantitated at 570 nm using a microplate reader (Molecular Devices, Menlo Park, Calif.). […]

Series [2] has as its system peripheral blood monocytes. As to the kind of experiment: LXA4 metabolism by peripheral blood monocytes. The note with it: within 30 s. In kind it is in vitro ADME, human. As to the method:
Human PMN were obtained from healthy volunteers by gradient centrifugation of heparinized fresh venous blood (Böyum, A. ([…]) Scand. J. Clin. Lab. Invest. 21:77). HL-60 cells were seeded in RPMI supplemented with penicillin (100 U/ml), streptomycin (100 μ/ml), fetal bovine serum (10%) (Hyclone, Logan, Utah) and incubated (37° C. with 5% CO2 atmosphere) in plastic 250 ml flasks. Individual flasks containing […] HL-60 cells/ml were incubated in the presence or absence of phorbol 12-myristate 13-acetate (PMA) (10 or 16 nM, 24-27 h) and adherence was monitored for induction of macrophage-like phenotype as in Collins, S. J. (1987) Blood 70:1233. […]
Incubations with eicosanoids were stopped with cold methanol containing either PGB2 or 5-HETE as internal standards (5-HETE was used when 15-oxo-ETE was quantified). […] Formation of 15-oxo-ETE by 100,000 g supernatants (cf. Agins, A. P. et al. (1987) Agents Actions 21:397; Xun, C-Q. et al.(1991) Biochem. J. 279:553; and Sok, D-E. et al. (1988) Biochem. Biophys. Res. Commun. 156:524) was quantified after RP-HPLC using an ODS column (4.6 mm×25 cm) eluted with methanol/H2O/acetic acid (70:30:0.01, v/v/v) monitored at 280 nm with a flow rate of 1 ml/min. […] On-line spectra were recorded using a diode array detector (Hewlett-Packard 1040M series II) equipped with HPLC^3D ChemStation software (DOS series). […]

On to `CCCCC[C@H](O)/C=C/C=C\C=C\C=C\[C@@H](O)[C@@H](O)CCCC(=O)O` [LXA4, (5S, 6R, 15S)-trihydroxy-7E, 9E, 11Z, 13E-eicosatetraenoic acid], for which the inhibition – broadly, how much of the control response was suppressed – at 0.1 µM in series [1] came out at 10.7%. In addition, in series [2], the LXA4 converted is given as greater than 60%.
